From patent US10221173B2, “Chemical compounds” (AstraZeneca AB, priority 2017, dated 2019)

Assays:
[1] = target: recombinant human Estrogen Receptor alpha ligand binding domain (ER alpha-LBD (GST)) (Homo sapiens (Human), UniProt P03372); assay: ERα binding assay (LanthaScreen TR-FRET competition)
[2] = target: Estrogen Receptor (ERα) in MCF-7 cells (Homo sapiens (Human), UniProt P03372); assay: MCF-7 ER down-regulation assay (immuno-fluorescence); assay type: cell-based
Chain of Estrogen Receptor (ERα) in MCF-7 cells (P03372 whole entry): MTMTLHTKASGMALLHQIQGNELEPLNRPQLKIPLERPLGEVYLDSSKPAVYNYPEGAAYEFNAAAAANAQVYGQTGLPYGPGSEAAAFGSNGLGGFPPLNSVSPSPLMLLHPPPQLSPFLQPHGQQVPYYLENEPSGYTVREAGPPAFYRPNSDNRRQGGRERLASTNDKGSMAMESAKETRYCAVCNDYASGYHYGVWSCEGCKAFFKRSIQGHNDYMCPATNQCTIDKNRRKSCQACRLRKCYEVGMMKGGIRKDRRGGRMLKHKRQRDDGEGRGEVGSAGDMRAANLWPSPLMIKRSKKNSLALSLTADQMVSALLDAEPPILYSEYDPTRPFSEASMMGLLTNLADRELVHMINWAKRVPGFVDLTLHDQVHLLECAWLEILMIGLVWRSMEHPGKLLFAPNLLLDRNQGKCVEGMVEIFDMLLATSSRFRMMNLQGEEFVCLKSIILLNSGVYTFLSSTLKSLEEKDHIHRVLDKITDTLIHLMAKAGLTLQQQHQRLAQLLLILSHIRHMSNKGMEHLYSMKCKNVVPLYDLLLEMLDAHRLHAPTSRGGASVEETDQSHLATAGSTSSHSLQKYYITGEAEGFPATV

Chain of recombinant human Estrogen Receptor alpha ligand binding domain (ER alpha-LBD (GST)) (P03372 307-554): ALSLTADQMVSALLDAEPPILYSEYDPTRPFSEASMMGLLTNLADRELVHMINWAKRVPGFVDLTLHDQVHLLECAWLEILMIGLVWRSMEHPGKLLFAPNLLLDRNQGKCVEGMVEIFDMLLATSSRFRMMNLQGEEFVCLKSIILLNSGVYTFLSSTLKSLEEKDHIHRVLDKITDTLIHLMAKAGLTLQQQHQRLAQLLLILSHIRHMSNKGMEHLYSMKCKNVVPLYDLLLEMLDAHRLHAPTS

Row | Structure (SMILES) | IC50 [1] | IC50 [2] | % downregulation (in brackets) ([2]; maximum downregulation)
1 | C[C@@H]1Cc2c([nH]c3ccccc23)[C@@H](c2c(F)cnc(OCCNCCCF)c2Cl)N1C[C@H](C)C(=O)O [Example 133, (S)-3-((1R,3R)-1-(3-chloro-5-fluoro-2-(2-((3-fluoropropyl)amino)ethoxy)pyridin-4-yl)-3-methyl-1,3,4,9-tetrahydro-2H-pyrido[3,4-b]indol-2-yl)-2-methylpropanoic acid] | 1.5 nM | 1.5 nM | –
2 | COc1ccc(OCCNCCCF)cc1[C@@H]1c2[nH]c3ccccc3c2C[C@@H](C)N1CC1(F)CC1 [Example 52, 3-fluoro-N-(2-(3-((1R,3R)-2-((1-fluorocyclopropyl)methyl)-3-methyl-2,3,4,9-tetrahydro-1H-pyrido[3,4-b]indol-1-yl)-4-methoxyphenoxy)ethyl)propan-1-amine] | 0.58 nM | 0.34 nM | –
3 | Cc1c(OCCNCCCF)ccc(F)c1[C@@H]1c2[nH]c3ccccc3c2C[C@@H](C)N1CC1(C(=O)O)CCC1 [Example 120] | 11 nM | 2.5 nM | –
4 | CC[C@@H]1Cc2c([nH]c3ccccc23)[C@@H](c2c(F)ccc(OCCNCCCF)c2C)N1C[C@H](C)C(=O)O [Example 122, (S)-3-((1R,3R)-3-ethyl-1-(6-fluoro-3-(2-((3-fluoropropyl)amino)ethoxy)-2-methylphenyl)-1,3,4,9-tetrahydro-2H-pyrido[3,4-b]indol-2-yl)-2-methylpropanoic acid] | 4.9 nM | 0.39 nM | –
5 | Cc1c(OCCN(C)CCCF)ccc(F)c1[C@@H]1c2[nH]c3ccc(F)cc3c2C[C@@H](C)N1C[C@@H](C)C(=O)O [Example 160, (R)-3-((1R,3R)-6-fluoro-1-(6-fluoro-3-(2-((3-fluoropropyl)(methyl)amino)ethoxy)-2-methylphenyl)-3-methyl-1,3,4,9-tetrahydro-2H-pyrido[3,4-b]indol-2-yl)-2-methylpropanoic acid] | 1.9 nM | 0.36 nM | –
6 | Cc1c(OCCN(C)CCCF)ncc(F)c1[C@@H]1c2[nH]c3ccc(F)cc3c2C[C@@H](C)N1CCC(=O)O [Example 156, 3-((1R,3R)-6-fluoro-1-(5-fluoro-2-(2-((3-fluoropropyl)(methyl)amino)ethoxy)-3-methylpyridin-4-yl)-3-methyl-1,3,4,9-tetrahydro-2H-pyrido[3,4-b]indol-2-yl)propanoic acid] | 1.2 nM | 1.4 nM | –
7 | C[C@@H]1Cc2c([nH]c3ccccc23)[C@@H](c2c(F)ccc(OCCN(C)CCCF)c2F)N1C[C@H](C)C(=O)O [Example 144, (S)-3-((1R,3R)-1-(2,6-difluoro-3-(2-((3-fluoropropyl)(methyl)amino)ethoxy)phenyl)-3-methyl-1,3,4,9-tetrahydro-2H-pyrido[3,4-b]indol-2-yl)-2-methylpropanoic acid] | 5.6 nM | 7.9 nM | 88%
8 | C[C@@H]1Cc2c([nH]c3ccccc23)[C@@H](c2c(F)ccc(OCCNCCCF)c2C(F)F)N1C[C@H](C)C(=O)O [Example 125, (S)-3-((1R,3R)-1-(2-(difluoromethyl)-6-fluoro-3-(2-((3-fluoropropyl)amino)ethoxy)phenyl)-3-methyl-1,3,4,9-tetrahydro-2H-pyrido[3,4-b]indol-2-yl)-2-methylpropanoic acid] | 1.3 nM | 0.62 nM | –
9 | Cc1c(OCCN(C)CCCF)ccc(F)c1[C@@H]1c2[nH]c3ccc(F)cc3c2C[C@@H](C)N1C[C@H](C)C(=O)O [Example 146, (S)-3-((1R,3R)-6-fluoro-1-(6-fluoro-3-(2-((3-fluoropropyl)(methyl)amino)ethoxy)-2-methylphenyl)-3-methyl-1,3,4,9-tetrahydro-2H-pyrido[3,4-b]indol-2-yl)-2-methylpropanoic acid] | 1.1 nM | 0.4 nM | –
10 | Cc1c(OCCN(C)CCCF)ncc(F)c1[C@@H]1c2[nH]c3ccccc3c2C[C@@H](C)N1CCC(=O)O [Example 157, 3-((1R,3R)-1-(5-fluoro-2-(2-((3-fluoropropyl)(methyl)amino)ethoxy)-3-methylpyridin-4-yl)-3-methyl-1,3,4,9-tetrahydro-2H-pyrido[3,4-b]indol-2-yl)propanoic acid] | 1.8 nM | 1 nM | –
